Source: paper PMC10812941, “Selenium-Containing (Hetero)Aryl Hybrids as Potential Antileishmanial Drug Candidates: In Vitro Screening against L. amazonensis” (Biomedicines, 2024)
Where two headings read alike, the source gives them in different places.

Experiments:
[1] = system: L. amazonensis promastigotes; experiment: Anti-promastigote assay (resazurin viability); settings: for IC50: 48 h; for SI (CC50 on murine peritoneal macrophages/IC50 on promastigotes): peritoneal macrophages vs promastigotes; for Selectivity Index (SI) CC50 J774 / IC50 promastigotes: J774A.1 vs promastigotes; for Selectivity Index (SI) CC50 NIH/3T3 / IC50 promastigotes: NIH/3T3 vs promastigotes
Protocol: (§1) Parasites in the exponential growth phase were used for the in vitro anti-promastigote assay, while those in the stationary phase were used for the anti-amastigote assay. Intracellular amastigote forms were obtained by infecting murine peritoneal macrophages with promastigotes.
Cell viability was assessed using the resazurin (Sigma-Aldrich) assay. A solution of resazurin (Sigma-Aldrich, USA) at 0.2 mg·mL^−1 was added to each well, and after 4 h of incubation at 26 °C, the absorbances at 570 nm and 600 nm were acquired, and the viability calculation for all wells was performed based on the formula and instructions provided by the AlamarBlue® manufacturer’s website (Bio-Rad, Hercules, CA, USA) [41]. Cell viability was evaluated from the optical density and compared to untreated cells. […] The half-maximal inhibitory concentration (IC50) values for each compound were calculated using a nonlinear dose–response regression curve generated by Prism 5 (GraphPad Software, USA).

in vitro [2] = settings: mouse
in vitro [3] = settings: mouse; remark: listed apart in the source
[4] = system: L. amazonensis intracellular amastigotes; experiment: Anti-amastigote assay in infected murine peritoneal macrophages; settings: for IC50: Leishmania amazonensis, Peritoneal macrophage, in Mus musculus, 24 h, read-out: IC50 L. amazonensis Amastigotes
Protocol: as §1
Plates were incubated at 37 °C with 5% CO2 for 1 h to allow adhesion, which was confirmed by microscopy. […] Supernatants were removed after treatment, and cells were washed twice with PBS, fixed with Bouin’s solution (Sigma-Aldrich, USA), and stained with Giemsa (Sigma-Aldrich, USA) diluted 1:10 in distilled water. Coverslips were dehydrated through an acetone/xylene gradient (100%, 70%, 50%, 30%, and 100% each from Sigma-Aldrich) and mounted for microscopic visualization. The total number of intracellular amastigotes was counted in 200 cells per coverslip in three replicates using an optical microscope. The half-maximal inhibitory concentration (IC50) values were calculated for each compound using a nonlinear regression curve in GraphPad Prism 5.0 software (GraphPad Software, San Diego, CA, USA).

[5] = Leishmania amazonensis, read-out: IC50 L. amazonensis Promastigotes, 48 h, resazurin
[6] = read-out: IC50 L. amazonensis Promastigotes, resazurin

N#C[Se]Cc1cc(=O)oc2cc(O)ccc12 [MRK-108]
IC50 [1, 5]: 4.23 ± 2 µM
SI (CC50 on murine peritoneal macrophages/IC50 on promastigotes) [1]: > 47.31
SI (CC50 on murine peritoneal macrophages/IC50 on promastigotes) ([1]; listed as 108): 47.31
CC50 at 48 h (in vitro [2]): > 200 µM
CC50 at 48 h (in vitro [3]): > 200 µM
IC50 [4]: > 50 µM

C[C@@H]1[C@H](O)[C@@H](C)/C=C/C=C/C=C/C=C/C=C/C=C/C=C/[C@H](O[C@@H]2O[C@H](C)[C@@H](O)[C@H](N)[C@@H]2O)C[C@@H]2O[C@](O)(C[C@@H](O)C[C@@H](O)[C@H](O)CC[C@@H](O)C[C@@H](O)CC(=O)O[C@H]1C)C[C@H](O)[C@H]2C(=O)O [ANFB, amphotericin B, reference compound]
Selectivity Index (SI) CC50 J774 / IC50 promastigotes [1]: 2.91
IC50 [1, 5]: 9.41 ± 1.13 µM
Selectivity Index (SI) CC50 NIH/3T3 / IC50 promastigotes [1]: 2.05
SI (CC50 on murine peritoneal macrophages/IC50 on promastigotes) [1]: 2.67
IC50 [1, 6]: 9.4 ± 1.13 µM
CC50 at 48 h (in vitro [2]; J774A.1 macrophage cells): 27.3 ± 0.92 µM
CC50 at 48 h (in vitro [3]; NIH/3T3 fibroblast cells): 19.3 ± 1.01 µM
Selectivity Index (SI) CC50 J774 / IC50 amastigotes ([4]; J774A.1 vs intracellular amastigotes): 28.19
IC50 [4]: 0.97 ± 1.14 µM
Selectivity Index (SI) CC50 NIH/3T3 / IC50 amastigotes ([4]; NIH/3T3 vs intracellular amastigotes): 25.92

CC(C)(C)c1cc(O)cc(C(C)(C)C)c1[Se]C#N [MRK-105]
Selectivity Index (SI) CC50 J774 / IC50 promastigotes [1]: 4.94
IC50 [1, 5]: 15.5 µM
Selectivity Index (SI) CC50 NIH/3T3 / IC50 promastigotes [1]: 7.22
SI (CC50 on murine peritoneal macrophages/IC50 on promastigotes) [1]: 12.92
SI (CC50 on murine peritoneal macrophages/IC50 on promastigotes) ([1]; listed as 105): 16.43
IC50 [1, 6]: 12.2 ± 1.12 µM
IC50 [4]: > 50 µM

Cc1ccc(-c2nnc([Se]c3ccccc3)o2)cc1 [MRK-103]
IC50 [1, 5]: 15.5 ± 1.13 µM
SI (CC50 on murine peritoneal macrophages/IC50 on promastigotes) [1]: 12.92
CC50 at 48 h (in vitro [2]): > 200 µM
CC50 at 48 h (in vitro [3]): > 200 µM
IC50 [4]: > 50 µM

Oc1ccc2ccccc2c1[Se]c1ccccc1 [MRK-102]
IC50 [1, 5]: 15.2 ± 1.12 µM
SI (CC50 on murine peritoneal macrophages/IC50 on promastigotes) [1]: 13.20
CC50 at 48 h (in vitro [2]): > 200 µM
CC50 at 48 h (in vitro [3]): > 200 µM
IC50 [4]: > 50 µM

COc1ccccc1[Se]c1c(-c2ccccc2)nc2cc(C)ccn12 [MRK-107]
Selectivity Index (SI) CC50 J774 / IC50 promastigotes [1]: 7.31
IC50 [1, 5]: 27.4 ± 1.24 µM
Selectivity Index (SI) CC50 NIH/3T3 / IC50 promastigotes [1]: 7.31
SI (CC50 on murine peritoneal macrophages/IC50 on promastigotes) [1]: 7.31
CC50 at 48 h (in vitro [2]): > 200 µM
CC50 at 48 h (in vitro [3]): > 200 µM
Selectivity Index (SI) CC50 J774 / IC50 amastigotes [4]: 10.92
Selectivity Index (SI) CC50 NIH/3T3 / IC50 amastigotes [4]: 10.92
IC50 [4]: 18.3 ± 1.5 µM

Cc1cn2c([Se]c3ccccc3)c(-c3ccccc3)nc2s1 [MRK-111]
IC50 [1, 5]: 17.6 ± 1.18 µM
SI (CC50 on murine peritoneal macrophages/IC50 on promastigotes) [1]: 11.40
CC50 at 48 h (in vitro [2]): > 200 µM
CC50 at 48 h (in vitro [3]): > 200 µM
IC50 [4]: > 50 µM

Cc1ccn2c([Se]c3ccccc3)c(-c3ccccc3)nc2c1 [MRK-113]
Selectivity Index (SI) CC50 J774 / IC50 promastigotes [1]: 4.88
IC50 [1, 5]: 41 ± 1.31 µM
Selectivity Index (SI) CC50 NIH/3T3 / IC50 promastigotes [1]: 4.88
SI (CC50 on murine peritoneal macrophages/IC50 on promastigotes) [1]: 4.88
CC50 at 48 h (in vitro [2]): > 200 µM
CC50 at 48 h (in vitro [3]): > 200 µM
Selectivity Index (SI) CC50 J774 / IC50 amastigotes [4]: 12.55
Selectivity Index (SI) CC50 NIH/3T3 / IC50 amastigotes [4]: 12.55
IC50 [4]: 15.9 ± 1.69 µM
